Experiment [1] concerns T24. Description: MTT assay T24. Type of experiment: cell-based. As to conditions: Table 5 lower part; T24 bladder cancer. As to the method: (§1) MTT assays. […] Viable cells (2500 cells per well) were plated in each well in 96-well plates. After an overnight incubation, cells were treated with and without relevant drugs alone and in combination, respectively, at various concentrations and incubated for 72 hours. MTT, a colorimetric substrate, was added to a final concentration of 0.4 mg/ml to each well. Cells in 96-well plates were further incubated in a 5% CO2 incubator at 37° C. for 4 hours, and then the medium was aspirated. The MTT metabolic product formazan was solubilized by adding 200 ul of DMSO to each well. Absorbance in the relevant wells was measured at 570 nm using an Ultra Microplate Reader (Bio-Tek Instruments). Each experiment was performed at least in triplicate. IC50/EC50 values were calculated from a series of drug dose ranges for each analyzed compound, using GraphPad Prism 6 (GraphPad Software, Inc., La Jolla, CA).
(§2) The inhibition of cell growth and viability in various cancer cell types were tested using MTT assay for references.
A general note: Formazan colour is commonly taken as a measure of viable cells.

Experiment [2] concerns RT4. The experiment in a line: MTT assay RT4. Type of experiment: cell-based. As to conditions: Table 5 lower part; RT4 bladder cancer. As to the method: as §1, §2
Experiment [3] relates to H1376. As for the experimental part: as §1, §2
Experiment [4] concerns UMUC-3. As to the method: as §1, §2
The test system of experiment [5] is FaDu. The experiment in a line: MTT assay FaDu. Type of experiment: cell-based. As to conditions: Table 5 lower part; FaDu head-and-neck cancer. As for the experimental part: as §1, §2
For experiment [6], the system named is A2008. The experiment in a line: MTT assay A2008. In kind it is cell-based. As for the experimental part: as §1, §2
Experiment [7] deals with HT-3. Description: MTT assay HT-3. In kind it is cell-based, human. As to conditions: Table 5 lower part. As to the method: as §1, §2
Experiment [8] deals with PDX14244 and PDX27454. Description: Pancreatic PDX14244 (left flank) and colorectal PDX27454 (right flank) in the same SCID mice. In kind it is in vivo. As to conditions: oral weekly for 4 times. As for the experimental part: Human xenograft tumors used.
The vehicle is the same aqueous suspension without FL7N-1. Experimental SCID mice were subcutaneously implanted with 30-40 mg individual PDX tumors (isolated from maintenance mice) at the flank area (left side for PDX14244, and right side for PDX27454) of SCID mice. […] The animal model of PDX tumors was orally treated weekly for 3 times as shown with black arrows. […] Thus, FL7N-1 may be a priority candidate to be developed for treatment of children rare disease retinoblastoma.
The vehicle is the same think aqueous suspension without drug. Experimental SCID mice were subcutaneously implanted with 30-40 mg individual PDX tumors (isolated from maintenance mice) at the flank area (left side for PDX14244, and right side for PDX27454) of SCID mice. […] The animal model of PDX tumors was orally treated weekly for 3 times as shown with black arrows.
The vehicle is the same think aqueous suspension without drug. Experimental SCID mice were subcutaneously implanted with 30-40 mg individual PDX tumors (isolated from maintenance mice) at the flank area (left side for PDX14244, and right side for PDX27454) of SCID mice. […] The animal model of PDX tumors was orally treated weekly for 4 times (one cycle/course, as shown with black arrows).
The vehicle is the same think aqueous suspension without drug. Experimental SCID mice were subcutaneously implanted with 30-40 mg individual PDX tumors (isolated from maintenance mice) at the flank area (left side for PDX14244, and right side for PDX27454) of SCID mice. […] The animal model of PDX tumors was orally treated weekly for 3 times in two doses due to drug limitation then (as shown with black arrows).

In experiment [9] the test system is UOK151. As to the method: as §1, §2
Experiment [10] has as its system UOK262. As to the method:
as §1, §2

Experiment [11] relates to A549. The experiment in a line: MTT assay A549. As to conditions: Table 9. Type of experiment: cell-based, human. As to the method:
MTT assays. […] Each experiment was performed at least in triplicate.

For experiment [12], the system named is SW620 xenograft tumors. As to conditions: oral weekly for 1-2 times. An excerpt:
Human xenograft tumors used. In this invention disclose, human SW620 (colorectal), HT29 (colorectal) and HT-3 (retinoblastoma) cancer cell line-established xenograft tumors were used. Human tumor cell line-derived xenograft tumors are initially established by subcutaneously injecting 2-5×10^6 cultured cancer cells in a volume of 100-150 p L medium into the flank area of severe combined immunodeficiency (SCID) mice. The derived tumors are then passed a couple of generations in mice by transplanting 30-50 mg non-necrotic tumor mass via a trocar for experiments or maintenance. […] PDX tumors were originally established on severe Combined Immunodeficiency (SCID) mice from pancreatic and colorectal cancer patient tumor tissues obtained from metastatic sites of the disease in the clinic.
Human SW620 xenograft tumors were initially established by subcutaneously injection of 2-5×10^6 SW620 cells in a volume of 100-150 μL medium. Mouse models of SW620 xenografts were set up by subcutaneously inoculating 30-40 mg tumor tissue (isolated from tumor maintenance SCID mice) on the flank of SCID mice. Treatment with individual compounds was initiated 7-14 days after the transplanted tumors reached 100-200 mm^3 (designated day 0). The treatment schedule is weekly for 1-2 times in a series of dose levels based on the available drug amounts then. The individual compounds were formulated in an organic solvent-free with HPβCD in 2% HPMC (hydroxypropyl methylcellulose) and 1% PG (propylene glycol) in saline (a thick aqueous suspension) for oral administration. The vehicle is the same thick aqueous suspension without drug.

Experiment [13] concerns A2780CP70-GFPcODC cells. The experiment in a line: GFPcODC drug-resistant cell tracking, A2780CP. Type of experiment: cell-based, human. As to conditions: 10 μM, 72 h. An excerpt:
(§3) Generation of A2780-GFPcODC, A2780CP-GFPcODC and PANC1GFPcODC cells and fluorescence microscopy to detect stem-like and drug resistant green cells. The retroviral expression vector pQCXIN-ZsGreen-cODC (ornithine decarboxylase), containing a green fluorescence marker, was kindly provided by Dr. Frank Pajonk (Vlashi E, et al., In vivo imaging, tracking, and targeting of cancer stem cells. J Natl Cancer Inst. 2009; 101: 350-9). The retroviral particles collected from packaging cells that transfected with the above vector were infected into A2780, A2780CP and PANC1 cells, respectively. The transfected cell pool was used for experiments. The transfected cells were treated with and without cisplatin or FL118 alone or in combination for defined times. Cell images were acquired digitally using the Olympus IX73 Inverted Score s (Olympus). Percentages of living cells were obtained from the average of the total cells counted from 10 microscopic fields.
To test this, we used a novel approach developed in Dr. Pajonk's lab for the live tracking of drug resistant cells (Vlashi E, et al., In vivo imaging, tracking, and targeting of cancer stem cells. J Natl Cancer Inst. 2009; 101: 350-9). This approach takes advantage of reduced 26S proteasome activity of drug resistant cells. […]

For experiment [14], the system named is PANC1-GFPcODC cells. Description: Trypan blue exclusion, PANC1-GFPcODC cells. Type of experiment: cell-based, human. As to conditions: 4-day treatment.
Source text: as §3, with “The transfected cells were treated with and without cisplatin or FL118 alone or in combination for defined times.” left out
Next, we applied the same system to generate pancreatic cancer PANC1-GFPcODC cells.

Experiment [15] concerns PDX10978. Description: Pancreatic cancer PDX10978 in SCID mice. Type of experiment: in vivo. As to conditions: FL118 0.75 mg/kg or gemcitabine 60 mg/kg ip qw×4. As to the method:
Human pancreatic cancer patient-derived xenograft (PDX) tumor mouse model and treatment. Experiments followed the IACUC-approved mouse protocol. Briefly, human PDAC PDX tumors maintained on SCID mice were isolated, and a piece of non-necrotic tumor tissues (30-40 mg) were subcutaneously transplanted into the flank area of female SCID mice. […] In this study, we used the timesaving intraperitoneal (ip) route for drug administration. […] The formulation process was described in detail in our previous patent (PCT/US2011/058558). […] Tumor length (L) and width (W) were measured using digital vernier calipers 1-3 times per week until the end of experimental studies. The tumor volume (v) was calculated using the formula: v=0.5 (L×W^2). Then the tumor size was divided by the day 0 tumor size as percentage tumor size versus day 0. The mean tumor volume ± standard deviation (SD) at each time point was derived from 5 mice in each group. The tumor curves were made using Sigma Plot software.
It has been recently documented that pancreatic cancer PDXs retain active paracrine/Hedgehog signaling, and desmoplasia is active in PDX tumor mouse models.

Setting [16] is: Table 5 lower part, H1376 bladder cancer.
Where [17] appears, read: Table 5 lower part, UMUC-3 bladder cancer.
Where [18] appears, read: Table 5 lower part, A2008 ovarian cancer.

Read-outs that look alike come from different tables or passages of the source.

`CCc1ccc(-c2c3c(nc4cc5c(cc24)OCO5)-c2cc4c(c(=O)n2C3)COC(=O)[C@]4(O)CC)cc1` [7Q 6]: the IC50/EC50 in [1] is listed as 0.19 nM; in experiment [2], 1.51 nM; in [3] (setting [16]), 386 nM; in [4] (setting [17]) it was 0.4 nM; in experiment [5] it was 0.85 nM; in experiment [6] (setting [18]), 1.34 nM. Also, the IC50/EC50 in experiment [7] (HT-3) is recorded as 3.11 nM. Further, the “antitumor activity, 7Q-series (1)” value in experiment [8] is recorded as “much higher antitumor activity than the other compounds in this 7Q-series (1)”.

As to `CC[C@@]1(O)C(=O)OCc2c1cc1n(c2=O)Cc2c-1nc1cc3c(cc1c2-c1cc(OC)cc(OC)c1)OCO3` [7Q 24], the IC50/EC50 is recorded as 0.08 nM in experiment [1]; 1.44 nM in [2]; 246 nM in experiment [3] (setting [16]); 0.21 nM in experiment [4] (setting [17]); 0.68 nM in experiment [5]; 1.95 nM in experiment [6] (setting [18]). Besides, the IC50/EC50 in experiment [7] (HT-3) is given as 3.59 nM. Moreover, the “antitumor activity, 7Q-series (1)” value in experiment [8] is reported as “much higher antitumor activity than the other compounds in this 7Q-series (1)”.

`CC[C@@]1(O)C(=O)OCc2c1cc1n(c2=O)Cc2cc3c(CN(C)C)c(O)ccc3nc2-1` [Topotecan, reference compound]: the IC50/EC50 in experiment [1] is 37.2 nM; in [2] it was 96.4 nM; in experiment [3] (setting [16]), >500 nM; in [3] (Table 8, H1376) it was >500 nM; in [4] (setting [17]) it was 52.8 nM; in experiment [4] (Table 8, UMUC-3), 52.8 nM. The IC50/EC50 in experiment [9] (Table 5 lower part, UOK151 kidney cancer) is listed as >200 nM; in experiment [9] (Table 8, UOK151), >200 nM; in experiment [9] (Table 10, UOK151) it was >200 nM; in experiment [10] (Table 5 lower part, UOK262 kidney cancer), >200 nM; in experiment [10] (Table 8, UOK262) it was >200 nM; in experiment [10] (Table 10, UOK262), >200 nM. For the same compound, the IC50/EC50 came to 26.63 nM in experiment [5], 46.1 nM in experiment [6] (setting [18]) and 83.42 nM in experiment [7] (HT-3 cervical carcinoma).

Turning to `CC[C@@]1(O)C(=O)OCc2c1cc1n(c2=O)Cc2c-1nc1cc3c(cc1c2-c1cccnc1)OCO3` [W-b2], the IC50/EC50 worked out at 2.24 nM in experiment [11] and 4.6 nM in [6] (Table 9, A2008). Also, in [12], the antitumor activity entry was “much higher antitumor activity than the other compounds in this Wb-series”.

As to `CC[C@@]1(O)C(=O)OCc2c1cc1n(c2=O)Cc2c-1nc1cc3c(cc1c2-c1ccoc1)OCO3` [W-b3], the IC50/EC50 in experiment [11] is listed as 0.92 nM; in [6] (Table 9, A2008) it was 16.15 nM. Moreover, the antitumor activity result in experiment [12] is on record as “much higher antitumor activity than the other compounds in this Wb-series”.

Turning to `CC[C@@]1(O)C(=O)OCc2c1cc1n(c2=O)Cc2c-1nc1cc3c(cc1c2-c1cccs1)OCO3` [W-b6], the IC50/EC50 turned out to be 1.2 nM in experiment [11] and 11.1 nM in [6] (Table 9, A2008). The antitumor activity result in [12] was “much higher antitumor activity than the other compounds in this Wb-series”.

As to `N.N.[Cl][Pt][Cl]` [cisplatin], in [13], the “total cell population killed” value was determined as 90%. The “GFP-negative (drug sensitive) PANC1 cells killed” value in experiment [14] (50 μM) is recorded as 92%. For the same compound, in [14] (20 μM cisplatin, 10 nM FL118, or both), the cell death was ~18%.

Regarding `Nc1ccn([C@@H]2O[C@H](CO)[C@@H](O)C2(F)F)c(=O)n1` [gemcitabine, reference compound], in experiment [15], the “antitumor efficacy, single agent” value was “only delayed tumor growth”.

Values taken from US20250092058A1 (priority 2018, published 2025).
